Measurements as given in patent US20180271863A1, “TARGETING P2 PURINERGIC RECEPTORS TO TREAT HEPATOCELLULAR CARCINOMA (HCC)” (Baylor College of Medicine, priority 2015, published 2018).

Experiments:
Assay type in all cases: cell-based, human
Huh7 cells [1] = experiment: Western blotting for cleaved PARP (apoptosis marker); settings: antagonist treatment alone
Description: Arrows point to BrdU-positive cells, expressed as a percentage of total cells. Data represents mean±SEM, n=3-6, *p<0.05 vs. untreated. […] Data represents mean±SD, n=3, *p<0.05 vs. untreated, #p<0.05.
Applicants' observations that P2X3 agonist 2-MeSATP treatment alone was sufficient to induce cyclin D3 expression (1.9 fold) and pre-treatment with an alternative P2X3 antagonist (A317491) attenuated ATP induced cyclin D3 expression in Huh7 cells further validated the role of P2X3 purinergic receptor activation in the induction of cell-cycle progression in HCC cells (FIGS. 11C-D). Furthermore, P2X3 antagonist treatment alone was sufficient to reduce the baseline BrdU-positive cells and cyclin protein expression in serum-free conditions, implicating P2X3 activation as a necessary facilitator of Huh7 cell cycle progression (FIGS. 11A-B).
(§1) Total protein extracts were obtained by homogenizing cells in total lysis buffer (50 mM Tris-HCl, pH 7.5, 0.5 M NaCl, 2 mM EGTA, 2 mM EDTA, 1.0% Triton X-100, 0.25% Deoxycholate, 1 m/ml pepstatin, 1.0 m/ml leupeptin, 1.0 m/ml aprotinin, 1.0 mM phenylmethylsulfonyl fluoride, 1.0 mM Dithiothreitol, 2.0 mM activated Na3VO4, and 2.0 mM NaF) and centrifuging at 14,000 rpm for 10 min (4° C.). Equal amounts of total proteins as determined by BCA protein Assay (Pierce, Rockford, Ill.) were analyzed by Western blotting. […]

SNU-387 cells [2] = experiment: BrdU incorporation (proliferation) in SNU-387 cells; settings: SFM 24 hours, ATP 24 hours
Protocol: (§2) To determine whether P2 purinergic receptor activation influences HCC cell proliferation, BrdU incorporation was assessed in HCC cells maintained in SFM for 24 hours and treated with ATP for 24 hours. ATP treatment alone was sufficient to induce proliferation in each of these cell lines (Huh7, 34%; Hep3B, 46%; SNU-387, 47% and PLC/PRF/5, 24%), identifying nucleotides as liver cancer cell mitogens (FIG. 7A).
(§3) Normal human primary hepatocytes isolated from healthy adults (no known history of HCC) in suspension or freshly-frozen prior to shipment (Cryoport Systems, CA) were purchased from Triangle Research Labs, NC. Fresh hepatocytes were plated on collagen-coated tissue culture plates or glass coverslips in Williams E complete media with additives (10% fetal bovine serum, 2 mM glutamine, […] insulin, 4 ng/ml glucagon, […] transferrin, 2.5 ng/ml sodium selenite, 10,000 U/ml penicillin, […] streptomycin, 50 g/ml gentamycin) for 3 h to ensure hepatocyte adherence to plates. […]
(§4) Formalin-fixed and paraffin embedded liver sections from HCC patients were analyzed by immunohistochemistry with anti-P2X3 antibody (Abcam, Cambridge, Mass.). […] BrdU positive cells were counted and expressed as a percentage of the total number of cells in ten randomly selected high-power fields (20×) per coverslips.

PLC/PRF/5 cells [3] = experiment: Western blotting of cyclin D3 in PLC/PRF/5 cells; settings: ATP 24 hours, serum-free
Protocol: (§5) HCC cells (Huh7, Hep3B, SNU-387, and PLC/PRF/5) maintained in serum-free conditions were treated with ATP for 24 hours and total protein extracts were analyzed by Western blotting for cyclin D3 expression. The α-tubulin was utilized as the protein loading control. Data represents mean±SD, n=3-6, *p<0.05 vs untreated (un).
(§6) Normal human primary hepatocytes isolated from healthy adults (no known history of HCC) in suspension or freshly-frozen prior to shipment (Cryoport Systems, CA) were purchased from Triangle Research Labs, NC. […]
as §1

Huh7 cells [4] = experiment: MTT assay of cell proliferation and viability, Huh7; settings: ATP 100 μM, 18 h
Protocol: (§7) Normal human primary hepatocytes isolated from healthy adults (no known history of HCC) in suspension or freshly-frozen prior to shipment (Cryoport Systems, CA) were purchased from Triangle Research Labs, NC. Fresh hepatocytes were plated on collagen-coated tissue culture plates or glass coverslips in Williams E complete media with additives (10% fetal bovine serum, 2 mM glutamine, […] insulin, 4 ng/ml glucagon, […] transferrin, 2.5 ng/ml sodium selenite, 10,000 U/ml penicillin, […] streptomycin, 50 g/ml gentamycin) for 3 h to ensure hepatocyte adherence to plates. Subsequently, hepatocytes were maintained in Williams E minimal media free from serum and growth factors for 24 h prior to treatment. Human hepatocellular carcinoma derived Huh7, and Hep3B, were cultured in Minimum Essential Medium Eagle (MEM); SNU-387 was cultured in Roswell Park Memorial Institute (RPMI) medium and PLC/PRF/5 cultured in Dulbecco's Modified Eagle's medium (DMEM). All maintenance culture media were supplemented with 10% fetal bovine serum (FBS), L-Glutamine (2 mM), penicillin (100 units/ml) and streptomycin ([…]) at 37° C. and 5% CO2. […]
(§8) Cell viability was determined using the 3-(4, 5-dimethylthiazol-2-yl)-2,5-diphenyltetrazolium (MTT, Sigma) assays. […] After shaking the plates for 30 min, the absorbance at 570 nm was measured (background subtraction at […]).

SNU-387 cells [5] = experiment: MTT assay of cell proliferation and viability, SNU-387; settings: ATP 100 μM, 18 h
Protocol: as §7, §8

Hep3B cells = experiment: MTT assay of cell proliferation and viability, Hep3B; settings: ATP 100 μM, 18 h
Protocol: as §7, §8

PLC/PRF/5 cells [6] = experiment: BrdU incorporation (proliferation) in PLC/PRF/5 cells; settings: SFM 24 hours, ATP 24 hours
Protocol: as §2, §3, §4

SNU-387 cells [7] = experiment: Western blotting of cyclin D3 in SNU-387 cells; settings: ATP 24 hours, serum-free
Protocol: as §5, §6, §1

SMILES: COc1cc(C(C)C)c(Oc2cnc(N)nc2N)cc1I [AF-353]
- cleaved PARP protein expression (marker of apoptosis) (Huh7 cells [1]): increased

SMILES: Nc1ncnc2c1ncn2[C@@H]1O[C@H](COP(=O)(O)OP(=O)(O)OP(=O)(O)O)[C@@H](O)[C@H]1O [ATP]
- proliferation (BrdU incorporation) induced by ATP (SNU-387 cells [2]): 47%
- cyclin D3 protein expression (PLC/PRF/5 cells [3]): 1.4 fold
- increase in cell proliferation and viability (MTT) (Huh7 cells [4]): 65%
- increase in cell proliferation and viability (MTT) (SNU-387 cells [5]): 90%
- increase in cell proliferation and viability (MTT) (Hep3B cells): 81%
- proliferation (BrdU incorporation) induced by ATP (PLC/PRF/5 cells [6]): 24%
- cyclin D3 protein expression (SNU-387 cells [7]): 1.6 fold
